Measurements reported in patent publication US9328122B2, “7-substituted Hanfangichin B derivative, and preparation method and use thereof” (HANGZHOU BENSHENG PHARMACEUTICAL CO., LTD., priority 2012, dated 2016).
≈ marks a conversion by molar mass, not a printed value.

What was measured:
[1] = system: RPMI 8226 (multiple myeloma) cells; assay: MTT cell growth inhibition, multiple myeloma cells; format: cell-based, human; conditions: Homo sapiens, RPMI 8226, 72 h, MTT
Description: Myeloma cell lines: RPMI8226 (multiple myeloma), purchased from Fuxiang Bio-tech Co. Ltd., Shanghai, China.
(§1) 6000 well-growing cells were obtained and inoculated into wells of a 96-well cell culture plate. The culture medium was a RPMI-1640 cell culture medium containing 10% fetal bovine serum. After adding the 7-substituted fangchinoline derivatives of different concentrations the next day and mixing uniformly, the plate was placed in a carbon dioxide cell incubator (5% CO2) at 37° C. and incubated for 72 hours. Then the viable cell concentration was determined by the MTT method.

[2] = system: U87-MG (malignant glioma) cells; assay: MTT cell growth inhibition, solid tumor cells; format: cell-based; conditions: Homo sapiens, U-87 MG, U87-MG, 72 h, MTT
From the text: (§2) Hep-2 (laryngeal carcinoma), A549 (human lung cancer), CaES-17 (esophageal cancer cell), PC-3 (prostate cancer), CNE (nasopharyngeal carcinoma cell) and SK-OV-3 (ovarian cancer cell), all of which were purchased from China Center For Type Culture Collection; RKO (human colon adenocarcinoma cell), MGC-803 (human gastric cancer cell), MG-63 (osteosarcoma), and U87-MG (malignant glioma cell), all of which were purchased from Fuxiang Bio-tech Co. Ltd., Shanghai, China; PANC-1 (pancreatic cancer), Becap37 (human breast cancer cell), Hela (human cervical cancer cell) and Hep G2 (human liver cancer cell), all of which were donated by Cancer Research Institute of Zhejiang University, China.
as §1, with “well-growing human solid tumor” for “well-growing”, “DMEM High Glucose” for “a RPMI-1640”, “serum. The plate was placed in a carbon dioxide cell incubator (5% CO2) at 37° C. and incubated for 24 hours.” for “serum.”, “added with” for “adding the”, “concentration” for “concentrations the next day”

[3] = system: Hep G2 (human liver cancer) cells; assay: MTT cell growth inhibition, solid tumor cells; format: cell-based; conditions: Homo sapiens, HepG2, Hep G2, 72 h, MTT
From the text: as §2
as §1, with “well-growing human solid tumor” for “well-growing”, “DMEM High Glucose” for “a RPMI-1640”, “serum. The plate was placed in a carbon dioxide cell incubator (5% CO2) at 37° C. and incubated for 24 hours.” for “serum.”, “added with” for “adding the”, “concentration” for “concentrations the next day”

[4] = system: RKO (human colon adenocarcinoma) cells; assay: MTT cell growth inhibition, solid tumor cells; format: cell-based; conditions: Homo sapiens, RKO, 72 h, MTT
From the text: as §2
as §1, with “well-growing human solid tumor” for “well-growing”, “DMEM High Glucose” for “a RPMI-1640”, “serum. The plate was placed in a carbon dioxide cell incubator (5% CO2) at 37° C. and incubated for 24 hours.” for “serum.”, “added with” for “adding the”, “concentration” for “concentrations the next day”

[5] = system: A549 (human lung cancer) cells; assay: MTT cell growth inhibition, solid tumor cells; format: cell-based; conditions: Homo sapiens, A549, 72 h, MTT
From the text: as §2
as §1, with “well-growing human solid tumor” for “well-growing”, “DMEM High Glucose” for “a RPMI-1640”, “serum. The plate was placed in a carbon dioxide cell incubator (5% CO2) at 37° C. and incubated for 24 hours.” for “serum.”, “added with” for “adding the”, “concentration” for “concentrations the next day”

[6] = system: MG-63 (osteosarcoma) cells; assay: MTT cell growth inhibition, solid tumor cells; format: cell-based; conditions: Homo sapiens, MG-63, 72 h, MTT
From the text: as §2
as §1, with “well-growing human solid tumor” for “well-growing”, “DMEM High Glucose” for “a RPMI-1640”, “serum. The plate was placed in a carbon dioxide cell incubator (5% CO2) at 37° C. and incubated for 24 hours.” for “serum.”, “added with” for “adding the”, “concentration” for “concentrations the next day”

[7] = system: MGC-803 (human gastric cancer) cells; assay: MTT cell growth inhibition, solid tumor cells; format: cell-based; conditions: MGC-803, 72 h, MTT
From the text: as §2
as §1, with “well-growing human solid tumor” for “well-growing”, “DMEM High Glucose” for “a RPMI-1640”, “serum. The plate was placed in a carbon dioxide cell incubator (5% CO2) at 37° C. and incubated for 24 hours.” for “serum.”, “added with” for “adding the”, “concentration” for “concentrations the next day”

[8] = system: Hep-2 (laryngeal carcinoma) cells; assay: MTT cell growth inhibition, solid tumor cells; format: cell-based; conditions: Homo sapiens, Hep-2, 72 h, MTT
From the text: as §2
as §1, with “well-growing human solid tumor” for “well-growing”, “DMEM High Glucose” for “a RPMI-1640”, “serum. The plate was placed in a carbon dioxide cell incubator (5% CO2) at 37° C. and incubated for 24 hours.” for “serum.”, “added with” for “adding the”, “concentration” for “concentrations the next day”

[9] = system: Becap-37 (human breast cancer) cells; assay: MTT cell growth inhibition, solid tumor cells; format: cell-based; conditions: Homo sapiens, Becap-37, 72 h, MTT
From the text: as §2
as §1, with “well-growing human solid tumor” for “well-growing”, “DMEM High Glucose” for “a RPMI-1640”, “serum. The plate was placed in a carbon dioxide cell incubator (5% CO2) at 37° C. and incubated for 24 hours.” for “serum.”, “added with” for “adding the”, “concentration” for “concentrations the next day”

[10] = system: Hela (human cervical cancer) cells; assay: MTT cell growth inhibition, solid tumor cells; format: cell-based; conditions: Homo sapiens, Hela, 72 h, MTT
From the text: as §2
as §1, with “well-growing human solid tumor” for “well-growing”, “DMEM High Glucose” for “a RPMI-1640”, “serum. The plate was placed in a carbon dioxide cell incubator (5% CO2) at 37° C. and incubated for 24 hours.” for “serum.”, “added with” for “adding the”, “concentration” for “concentrations the next day”

[11] = system: Kasumi-1 (acute myeloid leukemia M2 type) cells; assay: MTT cell growth inhibition, leukemia cells; format: cell-based, human; conditions: Homo sapiens, Kasumi-1, 72 h, MTT
From the text: (§3) Leukemia cell lines: leukemia cell lines: K562adr (drug-resistant, chronic myeloid leukemia, CML), NB4 (acute promyelocytic leukemia, AML), Kasumi-1 (acute myeloid leukemia M2 type, AML-M2), Jurkat (acute lymphoblastic leukemia, ALL), all of which were donated by Cancer Research Institute of Zhejiang University, China; and H9 (acute lymphoblastic leukemia, ALL), which was purchased from China Center for Type Culture Collection.
(§4) Reagents: The standard sample of fangchinoline (FAN) was purchased from Ci Yuan Biotechnology Co., Ltd., Shaanxi, China; and the 7-substituted fangchinoline derivatives according to the present invention.
as §1, with “well-growing leukemia” for “well-growing”, “incubating” for “incubated”

[12] = system: Jurkat (acute lymphoblastic leukemia) cells; assay: MTT cell growth inhibition, leukemia cells; format: cell-based, human; conditions: Homo sapiens, Jurkat, 72 h, MTT
From the text: as §3, §4
as §1, with “well-growing leukemia” for “well-growing”, “incubating” for “incubated”

[13] = system: CNE (nasopharyngeal carcinoma) cells; assay: MTT cell growth inhibition, solid tumor cells; format: cell-based, human; conditions: Homo sapiens, CNE, 72 h, MTT
From the text: as §2
as §1, with “well-growing human solid tumor” for “well-growing”, “DMEM High Glucose” for “a RPMI-1640”, “serum. The plate was placed in a carbon dioxide cell incubator (5% CO2) at 37° C. and incubated for 24 hours.” for “serum.”, “added with” for “adding the”, “concentration” for “concentrations the next day”

[14] = system: PC-3 (prostate cancer) cells; assay: MTT cell growth inhibition, solid tumor cells; format: cell-based, human; conditions: Homo sapiens, PC-3, 72 h, MTT
From the text: as §2
as §1, with “well-growing human solid tumor” for “well-growing”, “DMEM High Glucose” for “a RPMI-1640”, “serum. The plate was placed in a carbon dioxide cell incubator (5% CO2) at 37° C. and incubated for 24 hours.” for “serum.”, “added with” for “adding the”, “concentration” for “concentrations the next day”

[15] = system: SK-OV-3 (ovarian cancer) cells; assay: MTT cell growth inhibition, solid tumor cells; format: cell-based, human; conditions: Homo sapiens, SK-OV-3, 72 h, MTT
From the text: as §2
as §1, with “well-growing human solid tumor” for “well-growing”, “DMEM High Glucose” for “a RPMI-1640”, “serum. The plate was placed in a carbon dioxide cell incubator (5% CO2) at 37° C. and incubated for 24 hours.” for “serum.”, “added with” for “adding the”, “concentration” for “concentrations the next day”

[16] = system: CaEs-17 (esophageal cancer) cells; assay: MTT cell growth inhibition, solid tumor cells; format: cell-based, human; conditions: Homo sapiens, CaEs17, CaEs-17, 72 h, MTT
From the text: as §2
as §1, with “well-growing human solid tumor” for “well-growing”, “DMEM High Glucose” for “a RPMI-1640”, “serum. The plate was placed in a carbon dioxide cell incubator (5% CO2) at 37° C. and incubated for 24 hours.” for “serum.”, “added with” for “adding the”, “concentration” for “concentrations the next day”

[17] = system: PANC-1 (pancreatic cancer) cells; assay: MTT cell growth inhibition, solid tumor cells; format: cell-based, human; conditions: Homo sapiens, PANC-1, 72 h, MTT
From the text: as §2
as §1, with “well-growing human solid tumor” for “well-growing”, “DMEM High Glucose” for “a RPMI-1640”, “serum. The plate was placed in a carbon dioxide cell incubator (5% CO2) at 37° C. and incubated for 24 hours.” for “serum.”, “added with” for “adding the”, “concentration” for “concentrations the next day”

tumor = assay: Antitumor activity compared with fangchinoline, overall statement; format: cell-based; conditions: tumor type not specified

IC50 ([1]; read-out: IC50): 0.13 µg/mL (≈ 0.196 µM)
IC90 ([1]; read-out: IC90): 0.5 µg/mL (≈ 0.754 µM)
IC50 ([2]; read-out: IC50): 1.99 µg/mL (≈ 3 µM)
IC90 ([2]; read-out: IC90): 7.48 µg/mL (≈ 11.3 µM)
IC50 ([3]; read-out: IC50): 1.94 µg/mL (≈ 2.93 µM)
IC90 ([3]; read-out: IC90): 5.95 µg/mL (≈ 8.98 µM)
IC50 ([4]; read-out: IC50): 1.64 µg/mL (≈ 2.47 µM)
IC90 ([4]; read-out: IC90): 4.64 µg/mL (≈ 7 µM)
IC50 ([5]; read-out: IC50): 2.51 µg/mL (≈ 3.79 µM)
IC90 ([5]; read-out: IC90): 13.1 µg/mL (≈ 19.7 µM)
IC50 ([6]; read-out: IC50): 1.6 µg/mL (≈ 2.41 µM)
IC90 ([6]; read-out: IC90): 2.5 µg/mL (≈ 3.77 µM)
IC50 ([7]; read-out: IC50): 1.49 µg/mL (≈ 2.25 µM)
IC90 ([7]; read-out: IC90): 5.98 µg/mL (≈ 9.02 µM)
IC50 ([8]; read-out: IC50): 3.27 µg/mL (≈ 4.93 µM)
IC90 ([8]; read-out: IC90): 8.05 µg/mL (≈ 12.1 µM)
IC50 ([9]; read-out: IC50): 2.35 µg/mL (≈ 3.55 µM)
IC90 ([9]; read-out: IC90): 5.55 µg/mL (≈ 8.37 µM)
IC50 ([10]; read-out: IC50): 1.74 µg/mL (≈ 2.63 µM)
IC90 ([10]; read-out: IC90): 4 µg/mL (≈ 6.03 µM)
IC50 ([11]; read-out: IC50): 0.97 µg/mL (≈ 1.46 µM)
IC90 ([11]; read-out: IC90): 4.01 µg/mL (≈ 6.05 µM)
IC50 ([12]; read-out: IC50): 0.75 µg/mL (≈ 1.13 µM)
IC90 ([12]; read-out: IC90): 1.88 µg/mL (≈ 2.84 µM)
IC50 ([13]; read-out: IC50): 2.7 µg/mL (≈ 4.07 µM)
IC90 ([13]; read-out: IC90): 6 µg/mL (≈ 9.05 µM)
IC50 ([14]; read-out: IC50): 3.07 µg/mL (≈ 4.63 µM)
IC90 ([14]; read-out: IC90): 5.91 µg/mL (≈ 8.92 µM)
IC50 ([15]; read-out: IC50): 3.77 µg/mL (≈ 5.69 µM)
IC90 ([15]; read-out: IC90): 7.85 µg/mL (≈ 11.8 µM)
IC50 ([16]; read-out: IC50): 1.79 µg/mL (≈ 2.7 µM)
IC90 ([16]; read-out: IC90): 6.87 µg/mL (≈ 10.4 µM)
IC50 ([17]; read-out: IC50): 2.87 µg/mL (≈ 4.33 µM)
IC90 ([17]; read-out: IC90): 8.31 µg/mL (≈ 12.5 µM)
SMILES: COc1ccc2cc1Oc1ccc(cc1)C[C@H]1c3cc(c(OC)cc3CCN1C)Oc1c(OCC3CC3)c(OC)cc3c1[C@H](C2)N(C)CC3 [BS-FC-208]
antitumor activity compared with that of fangchinoline (tumor): significantly superior
